Key:
[1] = test system: EpiDerm tissues; experiment: EpiDerm bioassay: cytokine, chemokine and growth factor levels by multiplexed immunoassay after croton oil insult; assay type: cell-based, human; details: 24 hours; for G-CSF, percentage of the control / GM-CSF, percentage of the control / IL-1ra, percentage of the control / IL-10, percentage of the control / IL-13, percentage of the control / Leptin, percentage of the control / PGE2, percentage of the control / IL-4, percentage of the control: EpiDerm + 0.1% croton oil, percent difference vs croton oil alone; for IL-4, percentage of the control: 25% azelaic acid Na salt, 1% salicylic acid Na salt, 1% green tea extract, 1 μg/mL doxycycline hyclate (doxorubicin), 1% 4-ethoxybenzaldehyde, 0.025% all-trans retinoic acid
Experimental: Multiplexed immunoassays: […] Izbicka, et al., Cancer Genomics Proteomics (2012) 9(1):27-35]. Multiplexed immunoassays were performed using Luminex 100 IS System (Luminex Corporation, Austin, TX). Analyte concentrations were calculated from the standard curves using Bio-Plex Manager 4.1.1 (Bio-Rad Laboratories, Hercules, CA). EpiDerm Bioassays: The EpiDermTM 3-Dimensional Skin Model was purchased from MatTek Corporation (Ashland, MA). […] Conditioned media were collected, the remaining cells were homogenized on ice in the presence of protease and phosphatase inhibitors, and the lysates were clarified by centrifugation. The media and cell lysates were snap frozen at -70° C. Proteins were resolved by gel electrophoresis and visualized in immunoblots with human-specific antibodies to inducible nitric oxide synthase (iNOS), S-nitrosocysteine, and superoxide dismutase 2 (all from Abcam, Cambridge, MA). […] Croton oil (a chemical irritant) was used as a control. The results are shown as percent difference in marker levels in tissues treated with the test articles and those treated with croton oil alone. (Table 1). […] This pattern of tandem upregulation of examined markers in concert with downregulation of PGE2 was unique for DEA and was not observed with any other test article.

[2] = test system: EpiDerm tissues; experiment: EpiDerm croton oil irritant toxicity: proliferation and viability assays, microscopic inspection; assay type: cell-based, human; details: 25% DEA, 0.1% croton oil
Experimental: Cell proliferation and cytotoxicity assays: CellTiter 96 Non-Radioactive Cell Proliferation Assay (MTT), CellTiter 96 AQueous One Solution Cell Proliferation Assay (MTS) and CellTiter-Glo Luminescent Cell Viability (ATP) kits were purchased from Promega (Madison, WI). Protein concentration was measured using Micro BCA protein assay kit (Pierce Biotechnology, Rockford, IL). EpiDerm Bioassays: The EpiDerm™ 3-Dimensional Skin Model was purchased from MatTek Corporation (Ashland, MA). […] Conditioned media were collected, the remaining cells were homogenized on ice in the presence of protease and phosphatase inhibitors, and the lysates were clarified by centrifugation. The media and cell lysates were snap frozen at −70° C. Proteins were resolved by gel electrophoresis and visualized in immunoblots with human-specific antibodies to inducible nitric oxide synthase (iNOS), S-nitrosocysteine, and superoxide dismutase 2 (all from Abcam, Cambridge, MA). […] Croton oil (a chemical irritant) was used as a control. The results are shown as percent difference in marker levels in tissues treated with the test articles and those treated with croton oil alone. (Table 1). […] This pattern of tandem upregulation of examined markers in concert with downregulation of PGE2 was unique for DEA and was not observed with any other test article.

[3] = test system: PBMCs; experiment: Membrane fluidity measurement (pyrenedecanoic acid excimer fluorescence); assay type: cell-based, human; details: 0.5% DEA
Experimental: Isolation of human peripheral blood mononuclear cells: Fresh human peripheral blood mononuclear cells (PBMC) specimens were obtained from healthy volunteers. The blood was collected into BD Vacutainer CPT Cell Preparation Tubes (Beckton Dickinson, Franklin Lakes, NJ) and centrifuged at 1,500×g at room temperature and PBMCs were isolated according to supplier's protocol. Cell counts and viability assessment using trypan blue exclusion were measured using hemocytometer. Membrane fluidity measurements: Membrane fluidity was measured using Membrane Fluidity Kit (PN […], Marker Gene Technologies, Eugene, OR). […] The fluorescence of the excimer (excitation at 355 nm, emission at 460 nm) was corrected for the monomer (excitation at 355 nm, emission at 400 nm). The inventors of the present disclosure have shown that altered membrane protein function with a U-shaped dose response. […] Physiological consequences of DEA membrane fluidizing activity were further investigated in human plasmacytoid dendritic cells, which express multiple PRRs including TLRs, NOD and dectin-1 receptors. Human plasmacytoid dendritic cells were stimulated with the receptor agonists alone or in combination with 0.5% DEA.

[4] = test system: human plasmacytoid dendritic cells; experiment: ATP release and signaling with PRR agonists in plasmacytoid dendritic cells; assay type: cell-based; details: 0.5% DEA, 24 hours
Experimental: Cell proliferation and cytotoxicity assays: CellTiter 96 Non-Radioactive Cell Proliferation Assay (MTT), CellTiter 96 AQueous One Solution Cell Proliferation Assay (MTS) and CellTiter-Glo Luminescent Cell Viability (ATP) kits were purchased from Promega (Madison, WI). Protein concentration was measured using Micro BCA protein assay kit (Pierce Biotechnology, Rockford, IL).
Pathogen-associated molecular pattern receptor agonist studies: PRR agonist kits; human Toll-like receptor (TLR1-9; n=9 agonists), nucleotide oligomerization domain (NOD) NOD1/NOD2 (n=10 agonists, denoted n1, n2, . . . , n10) and dectin-1 (a single agonist) were purchased from InvivoGen, San Diego, CA Plasmacytoid human dendritic cells (MatTek Corporation, Ashland, MA) were diluted to 1.6×10^5 cells/mL and incubated with the agonists at the concentrations in the middle ranges recommended by the supplier in the absence of DEA or with 0.5% DEA for 24 hours. The levels of measured analytes were normalized to the numbers of viable cells.
The inventors of the present disclosure have shown that altered membrane protein function with a U-shaped dose response. At the concentration of 0.5% DEA increased membrane fluidity by 18% above the cholesterol control level. Physiological consequences of DEA membrane fluidizing activity were further investigated in human plasmacytoid dendritic cells, which express multiple PRRs including TLRs, NOD and dectin-1 receptors. […]
Human plasmacytoid dendritic cells (1.6×10^5/ml) were exposed to 20 different PRR agonists alone at the concentrations within physiological ranges of each agonist or in the presence of 0.5% DEA for 24 hours. The results are expressed as the ratios of secreted ATP from the cells treated with the PRR receptor agonists and DEA (treatment groups) to the levels of ATP secreted by the cells treated with the agonists alone (control groups). […] Extracellular levels were measured, and the results were expressed as the ratios of released ATP from the cells+receptor agonist+DEA to the ATP from the cells+receptor agonist alone.

[5] = test system: Balb/c mice; experiment: Hot plate test, hind limb response latency; assay type: in vivo; details: 100% (neat) DEA topical to hind limb 5 minutes before test, 42° C., male mice; vs untreated control, p=0.03
Experimental: In vivo studies: Animal studies and all procedures were performed in compliance with the Animal Welfare Act Regulations (9 CFR 3) and the NIH guidelines for the care and use of laboratory animals at New Frontier Labs LLC, San Antonio, TX Both male and female Balb/c mice 8-10 weeks old weighing approximately 25 g were purchased from Taconic Farms (Hudson, NY). Animals were acclimatized for at least 72 hours after delivery. Prior to experiments the animals were randomized into treatment and control groups. For the assessment of nociceptive effect of DEA, only male mice were used (n=8 per group). The hot plate test was performed at a constant temperature of 42° C. as described in S. Hunskaar, et al., Eur. J. Pharmacol. 1985; 111(2):221-6, which is incorporated herein by reference. DEA was administered neat (100%) or diluted in ethanol (vehicle) to the hind limb. The treatments were administered 5 minutes prior to the heat test. The time between the heat exposure to the first incidence of animal licking the hind paw was measured with a stopwatch.
Statistical analysis: Statistical analysis was done using Student t statistic; p values <0.05 were considered significant. All samples/data were included in the analysis. Continuously distributed outcomes were summarized with the mean and standard deviation. […]

[6] = test system: human PBMCs; assay type: cell-based; details: 0.5% DEA, confocal microscopy (FIG. 3)

Row | Structure (SMILES) | G-CSF, percentage of the control [1] [%] | GM-CSF, percentage of the control [1] [%] | IL-1ra, percentage of the control [1] [%] | IL-10, percentage of the control [1] [%] | IL-13, percentage of the control [1] [%] | Leptin, percentage of the control [1] [%] | PGE2, percentage of the control [1] [%] | IL-4, percentage of the control ([1]; 25% DEA) [%] | effect on pro-inflammatory markers among 57 examined cytokines, chemokines and growth factors ([1]; 25% DEA, 0.1% croton oil) | tissue integrity as evaluated by microscopic inspection [2] | croton oil irritant toxicity in proliferation and viability assays ([2]; 24 hours) | increase of membrane fluidity above the cholesterol control level [3] [%] | effect on ATP signaling with NOD receptor ligands n9 and n10 [4] | cellular signaling from all examined PRR ([4]; TLR, NOD, dectin-1 agonists) | ratio of released ATP, cells+receptor agonist+DEA to cells+receptor agonist alone ([4]; all PRR agonists except NOD ligands n9 and n10 (FIG. 1)) | decrease of heat sensitivity (hot plate response latency) [5] [%] | foci of enhanced cholera toxin B subunit fluorescence on plasma membranes [6]
1 | CCOc1ccc(C=O)cc1 [4-ethoxybenzaldehyde] | 340 | −26 | 34 | 471 | 34 | 39 | 4 | 80 | – | – | – | – | – | – | – | – | –
2 | O=C(O)CCCCCCCC(=O)O [Azelaic acid, azelaic acid] | −100 | −16 | 18 | 152 | −4 | 41 | −1 | 40 | – | – | – | – | – | – | – | – | –
3 | CCOC(=O)CCCCCCCC(=O)OCC [DEA, diethyl azelate] | 561 | 280 | 33 | 200 | 112 | 51 | – | 600 | downregulated most of the pro-inflammatory markers | protected tissue integrity | nullified croton oil irritant toxicity | 18 | no apparent effect | downregulated cellular signaling from all examined PRR | < 1 | 33 | no foci of enhanced fluorescence were detectable
4 | COc1cccc2c1C(=O)c1c(O)c3c(c(O)c1C2=O)C[C@@](O)(C(=O)CO)C[C@@H]3O[C@H]1C[C@H](N)[C@H](O)[C@H](C)O1 [Doxorubicin, doxorubicin] | 0 | −3 | 15 | 214 | −38 | 116 | −2 | 80 | – | – | – | – | – | – | – | – | –
5 | CC1=C(/C=C/C(C)=C/C=C/C(C)=C/C(=O)O)C(C)(C)CCC1 [Retinoic acid, all-trans retinoic acid] | 360 | −39 | 20 | 369 | −19 | 36 | 4 | 100 | – | – | – | – | – | – | – | – | –
6 | O=C(O)c1ccccc1O [Salicylic acid, salicylic acid] | 640 | −7 | 15 | 257 | −46 | 202 | 5 | 40 | – | – | – | – | – | – | – | – | –

Reference: US11911358B2, “Dicarboxylic acid esters for inducing an analgesic effect” (NEW FRONTIER LABS, LLC, priority 2020, dated 2024)
